From patent US5502068A, “Cyclopropylpyrroloindole-oligopeptide anticancer agents” (Synphar Laboratories, Inc., priority 1995, dated 1996)
≈ marks a conversion by molar mass, not a printed value. Entries after “also recorded” stand apart in the source; their conditions may differ. Read-outs that look alike come from different tables or passages of the source.

Tests used:
[1] = system: KB human nasopharyngeal carcinoma cells; experiment: Cytotoxicity (antiproliferative effect), crystal violet staining; assay type: cell-based; conditions: for IC50: Homo sapiens, KB, 72 h
Procedure: KB human nasopharyngeal carcinoma cells, were maintained in RPMI 1640 medium supplemented with 10% fetal bovine serum. KB cells were cultured in plastic tissue culture flasks and kept in an incubator at 37° C. in humidified air containing 5% CO2. These cells were free of Mycoplasma as determined with Hoechst 33258 stain.
The antiproliferative effect of compounds was determined using cell staining method by crystal violet.
One hundred-μ1 cultures were established at 10^3 cells/well in 96-well tissue culture plates (Nunc, Roskilde, Denmark). After 24 h. 100 µl of the medium containing 2 times concentrated the compounds were added to the cell culture. After an additional 3 days culture, cells were fixed to 20 µl of 25% glutaraldehyde for 15 minutes and washed with water, dried and stained with 0.05% crystal violet in 20% methanol for 15 minutes. After washing with water and drying, crystal violet was extracted with 100 µl of 50 mM NaH2 PO4 /ethanol (1:1 v/v) and OD540 was measured by the multiscanphotometer (Corona, Tokyo, Japan). A linear relationship between cell number and the amount of dye binding was found over the range of cell densities observed all experiments.

DNA [2] = conditions: in words, cited from earlier work
DNA [3] = experiment: Site and sequence selective DNA alkylation by polyacrylamide gel electrophoresis (PAGE); assay type: biochemical; conditions: for Alkylation Intensity at AATA*: site AATA*; for Alkylation Intensity at ATAA*: site ATAA*; for Alkylation Intensity at CTTA: site CTTA; for Alkylation Intensity at GAAA: site GAAA; for Alkylation Intensity at GATA*: site GATA*; for Alkylation Intensity at GTTA: site GTTA; for Alkylation Intensity at TATA: site TATA; for Alkylation Intensity at TTAA*: site TTAA*; for Alkylation Intensity at TTTA: site TTTA
Text: In contrast to FCE 24517, clear evidence of site and sequence selective DNA alkylation was obtained for the new CPI-oligopeptides by polyacrylamide gel electrophoresis (PAGE). […] Table 5 quantifies and compares the alkylation intensities at different sites for the CPI-oligopeptides with CC-1065. […] A detailed analysis of the frequency of occurrence of bases flanking the prominent alkylation sites for YW-052 and YW-053 compared with CC-1065 is given in Table 7.

[4] = system: P388 lymphocytic leukemia cells; experiment: Antitumor efficacy, i.p. P388 lymphocytic leukemia in CDF1 mice; assay type: in vivo, mouse; conditions: for In vivo ILS P388 (ip): maximum ILS
Procedure: All compounds were dissolved in dimethyl sulfoxide (DMSO), diluted in sterile 0.9% NaCl solution to 5% final DMSO concentration. BALB/c X DBA/2F1 (CDF1) mice were purchased from Japan CLEA. P388 lymphocytic leukemia cells were inoculated intraperitoneally (10^6 cells) 1 day prior to treatment into 6 week-old male CDF1 mice, and compounds were injected intraperitoneally in a total volume of 0.1 ml/10g mouse body weight. Efficacy for these models was expressed as the Increase in life span (ILS) of treated mice in comparison to untreated tumor-bearing mice. Experiment was completed on day 30 after tumor inoculation, and survivor on that day was evaluated as cured animal. Time to death (mean±SD.n=9) for untreated animals was 11.5±1.2 day and for solvent treated animals was 11.7±2.1 day.

herpes viruses = conditions: cited from earlier work
[5] = in words; cited from earlier work
[6] = Table 1, KB cells, 3 days, read-out: KB cells, toxicity TD50
[7] = Table 2, KB cells, 3 days, read-out: KB cells, toxicity TD50
[8] = Table 3, KB cells, 3 days, read-out: KB cells, toxicity TD50
[9] = Table 4, KB cell, read-out: Cytotoxicity IC50 (KB cell)

With `COc1cccc2c1C(=O)c1c(O)c3c(c(O)c1C2=O)C[C@@](O)(C(=O)CO)C[C@@H]3O[C@H]1C[C@H](N)[C@H](O)[C@H](C)O1` [Adriamycin, reference compound] the IC50 [1, 6] was 11 ng/mL (≈ 20.2 nM), the IC50 [1, 7] was 5 ng/mL (≈ 9.2 nM) and the IC50 [1, 8] was 4.4 ng/mL (≈ 8.1 nM).
In the case of `Cn1cc(NC(=O)c2cc(NC(=O)c3cc(NC(=O)c4ccc(N(CCCl)CCCl)cc4)cn3C)cn2C)cc1C(=O)NCCC(=N)N` [FCE 24517], the DNA alkylation (DNA [2]; Arcamone et al., 1989) is given as “shows no evidence of DNA alkylation” and the DNA sequence recognition (DNA [2]) is given as “strictly AT recognizing; also recorded: strictly limited AATT recognition”.
`CC(=O)Nc1cc(C(=O)N2CC3CC34C2=CC(=O)c2[nH]cc(C)c24)n(C)c1` (stereo not drawn) [YW-031] showed an IC50 [1, 6] of 0.0324 ng/mL (≈ 0.0889 nM).
With `Cc1c[nH]c2c1C13CC1CN(C(=O)c1cccn1C)C3=CC2=O` (stereo not drawn) [YW-032] the IC50 [1, 6] was 38 ng/mL (≈ 124 nM), the “Alkylation Intensity at AATA*” value (DNA [3]) was 1.35 and the “Alkylation Intensity at ATAA*” value (DNA [3]; first column of Table 5) was “.88”. For the same compound, the “Alkylation Intensity at ATAA*” value (DNA [3]; third column of Table 5) was 1.01, the “Alkylation Intensity at CTTA” value (DNA [3]) was “.61” and the “Alkylation Intensity at GAAA” value (DNA [3]) was “.79”. The “Alkylation Intensity at GATA*” value (DNA [3]) was 1.35, the “Alkylation Intensity at GTTA” value (DNA [3]) was 1.03 and the “Alkylation Intensity at TATA” value (DNA [3]) was 1.05. The “Alkylation Intensity at TTAA*” value (DNA [3]) was “.71” and the “Alkylation Intensity at TTTA” value (DNA [3]) was “.63”.
In the case of `Cc1c[nH]c2c1C13CC1CN(C(=O)CCc1cccn1C)C3=CC2=O` (stereo not drawn) [YW-033], the IC50 [1, 6] is reported as 263 ng/mL (≈ 784 nM), the “Alkylation Intensity at AATA*” value (DNA [3]) is reported as 1.42 and the “Alkylation Intensity at ATAA*” value (DNA [3]; first column of Table 5) is reported as “.95”. For the same compound, the “Alkylation Intensity at ATAA*” value (DNA [3]; third column of Table 5) was 1.11, the “Alkylation Intensity at CTTA” value (DNA [3]) was “.68” and the “Alkylation Intensity at GAAA” value (DNA [3]) was “.84”. The “Alkylation Intensity at GATA*” value (DNA [3]) was 1.41, the “Alkylation Intensity at GTTA” value (DNA [3]) was 1.27 and the “Alkylation Intensity at TATA” value (DNA [3]) was 1.40. For the same compound, the “Alkylation Intensity at TTAA*” value (DNA [3]) was “.84” and the “Alkylation Intensity at TTTA” value (DNA [3]) was “.97”.
In the case of `Cc1c[nH]c2c1C13CC1CN(C(=O)C=Cc1cccn1C)C3=CC2=O` (stereo not drawn) [YW-034], the IC50 [1, 6] is reported as 0.275 ng/mL (≈ 0.825 nM), the IC50 [1, 9] is reported as 0.27 ng/mL (≈ 0.81 nM) and the “In vivo ILS P388 (ip)” value ([4]; 1 mg/kg ip) is reported as 37.9%. For the same compound, the “Alkylation Intensity at AATA*” value (DNA [3]) was 1.30, the “Alkylation Intensity at ATAA*” value (DNA [3]; first column of Table 5) was “.71” and the “Alkylation Intensity at ATAA*” value (DNA [3]; third column of Table 5) was “.84”. The “Alkylation Intensity at CTTA” value (DNA [3]) was “.44”, the “Alkylation Intensity at GAAA” value (DNA [3]) was “.55” and the “Alkylation Intensity at GATA*” value (DNA [3]) was 1.09. For the same compound, the “Alkylation Intensity at GTTA” value (DNA [3]) was “.73”, the “Alkylation Intensity at TATA” value (DNA [3]) was “.77” and the “Alkylation Intensity at TTAA*” value (DNA [3]) was “.52”. For the same compound, the “Alkylation Intensity at TTTA” value (DNA [3]) was “.49”.
With `CCC(=O)Nc1cc(C(=O)N2CC3CC34C2=CC(=O)c2[nH]cc(C)c24)n(C)c1` (stereo not drawn) [YW-035] the IC50 [1, 9] was 1 ng/mL (≈ 2.64 nM) and the “In vivo ILS P388 (ip)” value ([4]; 0.1 mg/kg ip) was 56.5%.
In the case of `CCCC(=O)Nc1cc(C(=O)N2CC3CC34C2=CC(=O)c2[nH]cc(C)c24)n(C)c1` (stereo not drawn) [YW-036], the IC50 [1, 9] is reported as 0.47 ng/mL (≈ 1.2 nM), the “In vivo ILS P388 (ip)” value ([4]; 0.3 mg/kg ip, 30 day survivors not included) is reported as 24.6% and the cure ([4]; 0.3 mg/kg ip, survivors on day 30 evaluated as cured) is reported as 1/7.
For `CCCC(=O)Nc1cc(C(=O)Nc2cc(C=CC(=O)N3CC4CC45C3=CC(=O)c3[nH]cc(C)c35)n(C)c2)n(C)c1` (stereo not drawn) [YW-053], the “Frequency of Occurrence, base A at +1” value (DNA [3]; A, position +1) was 27%, the “Frequency of Occurrence, base A at +2” value (DNA [3]; A, position +2) was 27% and the “Frequency of Occurrence, base A at +3” value (DNA [3]; A, position +3) was 27%. For the same compound, the “Frequency of Occurrence, base A at -1” value (DNA [3]; A, position -1) was 36%, the “Frequency of Occurrence, base A at -2” value (DNA [3]; A, position -2) was 45% and the “Frequency of Occurrence, base A at -3” value (DNA [3]; A, position -3) was 36%. The “Frequency of Occurrence, A/T at +1” value (DNA [3]; A/T, position +1) was 82%, the “Frequency of Occurrence, A/T at +2” value (DNA [3]; A/T, position +2) was 54% and the “Frequency of Occurrence, A/T at +3” value (DNA [3]; A/T, position +3) was 54%. For the same compound, the “Frequency of Occurrence, A/T at -1” value (DNA [3]; A/T, position -1) was 100%, the “Frequency of Occurrence, A/T at -2” value (DNA [3]; A/T, position -2) was 100% and the “Frequency of Occurrence, A/T at -3” value (DNA [3]; A/T, position -3) was 63%. For the same compound, the “Frequency of Occurrence, base C at +2” value (DNA [3]; C, position +2) was 9%, the “Frequency of Occurrence, base C at +3” value (DNA [3]; C, position +3) was 9% and the “Frequency of Occurrence, base C at -3” value (DNA [3]; C, position -3) was 10%. The “Frequency of Occurrence, base G at +1” value (DNA [3]; G, position +1) was 28%, the “Frequency of Occurrence, base G at +2” value (DNA [3]; G, position +2) was 37% and the “Frequency of Occurrence, base G at +3” value (DNA [3]; G, position +3) was 37%. For the same compound, the “Frequency of Occurrence, base G at -3” value (DNA [3]; G, position -3) was 27%, the “Frequency of Occurrence, base T at +1” value (DNA [3]; T, position +1) was 45% and the “Frequency of Occurrence, base T at +2” value (DNA [3]; T, position +2) was 27%. The “Frequency of Occurrence, base T at +3” value (DNA [3]; T, position +3) was 27%, the “Frequency of Occurrence, base T at -1” value (DNA [3]; T, position -1) was 64% and the “Frequency of Occurrence, base T at -2” value (DNA [3]; T, position -2) was 55%. For the same compound, the “Frequency of Occurrence, base T at -3” value (DNA [3]; T, position -3) was 27%, the “Frequency of Occurrence, A* (site of alkylation)” value (DNA [3]; alkylated base A*) was 91% and the “Frequency of Occurrence, G* (site of alkylation)” value (DNA [3]; alkylated base G*) was 9%. For the same compound, the “Alkylation Sites (5'-3'), Moderate” value (DNA [3]; moderate sites, listed as YW-53) was “TTAA, AATG, GATA; also recorded: ATAA, CTTA, GAAA” and the “Alkylation Sites (5'-3'), Strong” value (DNA [3]; strong sites, listed as YW-53) was “TTTA, TATA, GTTA; also recorded: AATA, ATAA”.
With `CC(=O)Nc1cc(C=CC(=O)N2CC3CC34C2=CC(=O)c2[nH]cc(C)c24)n(C)c1` (stereo not drawn) [YW-059] the IC50 [1, 7] was 0.00015 ng/mL (≈ 0.000384 nM) and the “cytotoxic potency / anticancer activity in vitro” value ([1]; human tumor KB cell line, in words) was “exceeding in the case of YW-059, for example, that of any other reported natural or synthetic agents; also recorded: cytotoxic potency exceeds that of any other agent, natural or synthetic, reported to date”.
Work on `Cc1c[nH]c2c1C13CC1CN(C(=O)c1cc(NC(=O)CCN(C)C)cn1C)C3=CC2=O` (stereo not drawn) [YW-60] yielded an IC50 [1, 8] of 184 ng/mL (≈ 437 nM).
`Cc1c[nH]c2c1C13CC1CN(C(=O)c1cc(NC(=O)c4cc(NC(=O)CCN(C)C)cn4C)cn1C)C3=CC2=O` (stereo not drawn) [YW-61] showed an IC50 [1, 8] of 2490 ng/mL (≈ 4580 nM).
`Cc1c[nH]c2c1C13CC1CN(C(=O)c1cc(NC(=O)c4cc(NC(=O)c5cc(NC(=O)CCN(C)C)cn5C)cn4C)cn1C)C3=CC2=O` (stereo not drawn) [YW-62] showed an IC50 [1, 8] of 1370 ng/mL (≈ 2060 nM).
In the case of `Cc1c[nH]c2c1C13CC1CN(C(=O)c1nc(NC(=O)CCN(C)C)cn1C)C3=CC2=O` (stereo not drawn) [YW-63], the IC50 [1, 8] is reported as 385 ng/mL (≈ 911 nM).
`Cc1c[nH]c2c1C13CC1CN(C(=O)c1nc(NC(=O)c4nc(NC(=O)CCN(C)C)cn4C)cn1C)C3=CC2=O` (stereo not drawn) [YW-64] gave an IC50 [1, 8] of 2520 ng/mL (≈ 4620 nM).
In the case of `Cn1cc(NC(=O)c2cc(NC(=O)c3cc(NC=O)cn3C)cn2C)cc1C(=O)NCCC(=N)N` [distamycin], the therapeutic index (herpes viruses) is listed as “about 3” and the cytotoxicity [5] is listed as “high cytotoxicity”.
